# Experimental data taken from article PMC6017366, “Characterization of Two VAO-Type Flavoprotein Oxidases from Myceliophthora thermophila” (Molecules : A Journal of Synthetic Chemistry and Natural …, 2018).
# Key:
# [1] = target: T1, MtVAO615 (Thermothelomyces thermophilus, UniProt G2QDQ9); test: X-ray crystal structure ([…] and […] Å); assay type: binding; details: covalent; bicovalent 6-S-cysteinyl (Cys222) and 8alpha-N1-histidyl (His157) FAD; crystals at pH 7.5 and pH 5.0
# T1 construct: gene MYCTH_2305637; mature secreted protein, signal peptide (first 26 residues) removed; homologous expression in M. thermophila C1; N-glycosylated; bicovalent FAD (His157, Cys222); predicted 60 kDa, about 70 kDa on SDS-PAGE
# T1 sequence (G2QDQ9 27-574): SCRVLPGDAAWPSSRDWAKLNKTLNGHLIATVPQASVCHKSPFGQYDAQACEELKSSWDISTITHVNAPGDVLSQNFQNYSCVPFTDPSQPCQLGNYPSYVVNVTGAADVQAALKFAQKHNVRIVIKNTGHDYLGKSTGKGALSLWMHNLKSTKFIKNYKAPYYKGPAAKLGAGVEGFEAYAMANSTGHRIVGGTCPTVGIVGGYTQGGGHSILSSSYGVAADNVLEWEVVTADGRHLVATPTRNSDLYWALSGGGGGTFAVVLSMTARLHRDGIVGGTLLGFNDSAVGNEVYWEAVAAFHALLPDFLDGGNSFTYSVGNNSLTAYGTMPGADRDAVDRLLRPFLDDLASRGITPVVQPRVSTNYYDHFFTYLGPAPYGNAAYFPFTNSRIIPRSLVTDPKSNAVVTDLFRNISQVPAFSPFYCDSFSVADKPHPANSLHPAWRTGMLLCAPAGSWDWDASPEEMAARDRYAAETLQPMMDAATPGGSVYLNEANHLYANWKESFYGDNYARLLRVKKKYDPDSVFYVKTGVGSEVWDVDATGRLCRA
# [2] = target: T2, MtVAO713 (Thermothelomyces thermophilus, UniProt G2QMS8); test: GC/MS of conversion to 12-ketooleic acid; assay type: biochemical; details: 5 mM ricinoleic acid, 8 µM enzyme, 16 h; oxygen as electron acceptor; 50 mM Tris/Cl pH 8.0, 10% DMSO, 30 or 37 °C; very poor substrate
# T2 construct: gene MYCTH_2309690; mature secreted protein, signal peptide (first 26 residues) removed; homologous expression in M. thermophila C1; monocovalent FAD (His159); N-glycosylated at Asn103 and Asn131; about 60 kDa on SDS-PAGE, 53 kDa by gel filtration
# T2 sequence (G2QMS8 entry or part of it): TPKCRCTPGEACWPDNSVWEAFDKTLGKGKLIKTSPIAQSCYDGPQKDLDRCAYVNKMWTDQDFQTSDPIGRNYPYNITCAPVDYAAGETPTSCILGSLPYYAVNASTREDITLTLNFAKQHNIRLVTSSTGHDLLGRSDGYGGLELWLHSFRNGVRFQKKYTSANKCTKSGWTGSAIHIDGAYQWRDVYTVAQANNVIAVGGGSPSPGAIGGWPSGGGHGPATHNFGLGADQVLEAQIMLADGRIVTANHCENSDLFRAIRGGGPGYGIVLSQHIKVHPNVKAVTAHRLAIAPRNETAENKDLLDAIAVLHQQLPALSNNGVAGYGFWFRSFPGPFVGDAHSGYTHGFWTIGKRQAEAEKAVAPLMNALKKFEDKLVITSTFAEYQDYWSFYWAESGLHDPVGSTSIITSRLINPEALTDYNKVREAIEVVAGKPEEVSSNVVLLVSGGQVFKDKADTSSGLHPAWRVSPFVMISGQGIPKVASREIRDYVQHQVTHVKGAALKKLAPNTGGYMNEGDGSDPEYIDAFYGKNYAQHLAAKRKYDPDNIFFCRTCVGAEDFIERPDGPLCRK
Compound,X-ray crystal structure (2.0 and 2.2 Å) [1],GC/MS of conversion to 12-ketooleic acid [2]
Cc1cc2nc3c(=O)[nH]c(=O)nc-3n(C[C@H](O)[C@H](O)[C@H](O)COP(=O)(O)OP(=O)(O)OC[C@H]3O[C@@H](n4cnc5c(N)ncnc54)[C@H](O)[C@@H]3O)c2cc1C [FAD],MtVAO615 harbors a bicovalently linked 6-S-cysteinyl-8α-N1-histidyl FAD,
CCCCCC[C@@H](O)C/C=C\CCCCCCCC(=O)O [ricinoleic acid],,The conversion of ricinoleic acid by MtVAO713 was confirmed by GC/MS analysis
